According to patent publication US20110177161A1, “PHARMACEUTICAL COMPOSITIONS OF [5(S)-(2'-HYDROXYETHOXY)-20(S)-CAMPTOTHECIN” (DR. REDDY'S LABORATORIES LIMITED, priority 2007, published 2011):
Converted amounts (≈) assume the structure as drawn. Marks after values point to notes of the source that are not given here.

Assays:
physchem [1] = type: physicochemical; settings: thermodynamic from solid
Description: Excess amounts of DRF-(5S,20S)-1042 were added to different media including water, fasting state simulated intestinal fluid (FaSIF), fed state simulated intestinal fluid (FeSIF), aqueous sodium carbonate solution (0.1M, pH12.6), aqueous sodium hydroxide solution (0.1M, pH 12.73) and the suspensions were shaken at room temperature for 24 hours at 200 rpm in a mechanical shaker water bath till no further drug went into solution when checked visually. The suspensions were filtered through a 0.22 μm membrane filter (supplied by Millipore) and the content of DRF-(5S,20S)-1042 was quantified by using the HPLC method described above.

physchem [2] = type: physicochemical
Description: Excess amounts of DRF-(5S,20S)-1042 were added to aqueous solutions of HPBCD with concentrations ranging from 0-40% w/v and the suspensions were shaken at 200 rpm and 25° C. in an incubator shaker, till no further DRF-(5S,20S)-1042 went into solution. The solutions were filtered through a 0.22 μm membrane filter and subjected to analysis by HPLC by a process described above. The results are described in Table 3 and in FIG. 1.

[3] = system: Human bone marrow mononuclear cells; test: Human bone marrow assay (CFU-GM colonies); type: cell-based; settings: GI90 for human cell toxicity to GI50 for anticancer activity
Description: Methocult.TM. GF (Cat No: H4534, Poietics, Biowhittakar, USA) medium comprising Methycellulose in iscove's MDM, Fetal bovine serum, Bovine serum albumin, 2-Mercaptoethanol, L-Glutamine, rhStem cell factor, rhGM-CSF and rhIL-3 was used for the assay. Human bone marrow mononuclear cells (Cat No. 2M-125C, Poietics, Biowhittakar, USA) were mixed with Methocult GF and the cell density was adjusted to 3×10^5 cells/ml. From this preparation, 500 μL aliquots were made and […] of 20× drug solution or vehicle was added to each aliquot and mixed thoroughly. 100 μL of clonogenic medium was plated into each well and the plates were allowed to gel at 4° C. for 15 minutes. Plates were incubated at 37 degree C. in a fully humidified atmosphere of 5% CO2 in an incubator for 14 days. CFU-GM colonies were counted under an inverted microscope as aggregates of 50 cells or more. The percentage colony inhibition was calculated using the following formula: 100−[(number of colonies in drug treated wells/Number of colonies in control wells)×100].

in vivo = test: in vivo; parameters: species or system Swiss Albino mice; settings: Swiss Albino, mouse, po, 2.5 mg/kg
Description: 5(S)-CPT (2.5 mg/kg) and 5(RS)-CPT (5 mg/kg, including 2.5 mg/kg of 5(S)-CPT in the mixture) were been administered to Swiss Albino mice to evaluate oral pharmacokinetics.
Swiss Albino mice, 3-6 weeks of age and weighing between 28-34 g were used in the study. Twelve mice were used per study. The oral pharmacokinetics test was carried out in overnight fasted condition and intravenous pharmacokinetics was carried out in fed condition. The test drugs were administered as a solution by oral gavage or lateral tail vein injection. Sparse blood samples of about 250 microliters were collected from retro-orbital plexus at designated time points into microcentrifuge tubes containing 25 microliters of EDTA. Plasma was separated by centrifuging blood at 12,800 rpm for 2 min and refrigerated until analysis.
Samples were tested for the presence of the test drug as follows. An aliquot of 100µl plasma (stored at 8° C.) was precipitated with 400µl of cold methanol for the estimation of total (lactone+carboxylate). […] Concentrations of the test drug were calculated from the linearity plotted by spiking known concentrations of the test drug in blank rat plasma. The pharmacokinetics of the test drug was calculated using non-compartmental analysis.

[4] = Solution stability in different alkaline solutions (HPLC impurities); type: physicochemical; parameters: C = Dimer impurity: unit not given beside the values
[5] = Arginine neutralized, 24 hours RT
[6] = Meglumine neutralized, 24 hours RT

CC[C@@]1(O)C(=O)OCc2c1cc1n(c2=O)[C@@H](OCCO)c2cc3ccccc3nc2-1 [DRF-(5S,20S)-1042, 5(S)-(2′-hydroxyethoxy)-20(S)-camptothecin]
solubility at 24 h (physchem [1]; fessif): ~41 µg/mL (≈ 0.1 mM)
solubility at 24 h (physchem [1]; pH 12.6, aqueous buffer): 4160 µg/mL (≈ 10.2 mM)
solubility at 24 h (physchem [1]; pH 12.73, aqueous buffer): 6670 µg/mL (≈ 16.3 mM)
increase in aqueous solubility and solubility in bio-relevant media vs uncomplexed state (physchem [2]): more than 50 fold
increase in aqueous solubility when compared with water alone (physchem [2]): over 50 fold
solubility (physchem [2]; 25 °C, water, thermodynamic from solid, Solubility): 20 µg/mL (≈ 0.049 mM)
Safety Margin GI90/GI50 [3]: 0.14
AUC (in vivo): 1.1 µM·h
A = DRF (5R,20S)-1042 ([4]; Arginine as is, 24 hours RT): 5.22
B = Decarboxylated impurity ([4]; Arginine as is, 24 hours RT): 0.19
C = Dimer impurity ([4]; Arginine as is, 24 hours RT): 0.95
D = Total impurities excluding DRF (5R,20S)-1042 ([4]; Arginine as is, 24 hours RT): 3.23
A = DRF (5R,20S)-1042 ([4]; Arginine as is, Initial): 3.45
B = Decarboxylated impurity ([4]; Arginine as is, Initial): 0.06
C = Dimer impurity ([4]; Arginine as is, Initial): 0.88
D = Total impurities excluding DRF (5R,20S)-1042 ([4]; Arginine as is, Initial): 2.50
A = DRF (5R,20S)-1042 [4, 5]: 3.26
B = Decarboxylated impurity [4, 5]: 0.18
C = Dimer impurity [4, 5]: 0.93
D = Total impurities excluding DRF (5R,20S)-1042 [4, 5]: 3.11
A = DRF (5R,20S)-1042 ([4]; Arginine neutralized, Initial): 3.38
B = Decarboxylated impurity ([4]; Arginine neutralized, Initial): 0.04
C = Dimer impurity ([4]; Arginine neutralized, Initial): 0.9
D = Total impurities excluding DRF (5R,20S)-1042 ([4]; Arginine neutralized, Initial): 2.64
A = DRF (5R,20S)-1042 ([4]; Meglumine as is, 24 hours RT): 2.30
B = Decarboxylated impurity ([4]; Meglumine as is, 24 hours RT): 0.33
C = Dimer impurity ([4]; Meglumine as is, 24 hours RT): 7.17*
D = Total impurities excluding DRF (5R,20S)-1042 ([4]; Meglumine as is, 24 hours RT): 11.1
A = DRF (5R,20S)-1042 ([4]; Meglumine as is, Initial): 2.77
B = Decarboxylated impurity ([4]; Meglumine as is, Initial): 0.21
C = Dimer impurity ([4]; Meglumine as is, Initial): 12.04
D = Total impurities excluding DRF (5R,20S)-1042 ([4]; Meglumine as is, Initial): 21.15
A = DRF (5R,20S)-1042 [4, 6]: 2.57
B = Decarboxylated impurity [4, 6]: 0.33
C = Dimer impurity [4, 6]: 1.47
D = Total impurities excluding DRF (5R,20S)-1042 [4, 6]: 5.02
A = DRF (5R,20S)-1042 ([4]; Meglumine neutralized, Initial): 1.05
B = Decarboxylated impurity ([4]; Meglumine neutralized, Initial): 0.03
C = Dimer impurity ([4]; Meglumine neutralized, Initial): 0.54
D = Total impurities excluding DRF (5R,20S)-1042 ([4]; Meglumine neutralized, Initial): 1.49
A = DRF (5R,20S)-1042 ([4]; NaOH as is, 24 hours RT): 101.79
B = Decarboxylated impurity ([4]; NaOH as is, 24 hours RT): 0.02
C = Dimer impurity ([4]; NaOH as is, 24 hours RT): 0.48
D = Total impurities excluding DRF (5R,20S)-1042 ([4]; NaOH as is, 24 hours RT): 1.95
A = DRF (5R,20S)-1042 ([4]; NaOH as is, Initial): 75.40
B = Decarboxylated impurity ([4]; NaOH as is, Initial): 0.02
C = Dimer impurity ([4]; NaOH as is, Initial): 0.35
D = Total impurities excluding DRF (5R,20S)-1042 ([4]; NaOH as is, Initial): 1.81
A = DRF (5R,20S)-1042 ([4]; NaOH neutralized, 24 hours RT): 56.26
B = Decarboxylated impurity ([4]; NaOH neutralized, 24 hours RT): 0.02
C = Dimer impurity ([4]; NaOH neutralized, 24 hours RT): 0.37
D = Total impurities excluding DRF (5R,20S)-1042 ([4]; NaOH neutralized, 24 hours RT): 2.22
A = DRF (5R,20S)-1042 ([4]; NaOH neutralized, Initial): 56.75
B = Decarboxylated impurity ([4]; NaOH neutralized, Initial): 0.02
C = Dimer impurity ([4]; NaOH neutralized, Initial): 0.38
D = Total impurities excluding DRF (5R,20S)-1042 ([4]; NaOH neutralized, Initial): 1.81
